According to patent US20080004266A1, “Method for treating proliferative disorders associated with protooncogene products” (priority 2006, published 2008):

Experiments:
MV 4-11 cells (FLT3-ITD) = test: Cell survival in MV-4-11 cells (Cell Counting Kit-8); format: cell-based, human; conditions: Homo sapiens, MV4-11, 72 hours
Experimental: Human acute myelogenous leukemia (AML) cell line, MV 4-11 (ATCC #CRL-9591), was obtained from the American Type Culture Collection (ATCC; Manassas, Va., USA). Growth of this tumor cell line is dependent upon the expression of an activated form of the FLT3 tyrosine kinase receptor carrying an internal tandem duplication (ITD) mutation, which is the most common molecular defect associated with AML (K. W. Yee et al., Blood 100:2941-2949, 2002). MV 4-11 cells (20,000 cells/well) were cultured in 96-well plates and maintained at 37° C. for several hours. The cells were incubated at 37° C. for 72 hours with various concentrations of compounds of the invention, 17AAG, or DMAG. 17AAG and DMAG are Hsp90 inhibitors that are currently in clinical trials and are used here as positive controls for Hsp90 inhibition. Cell survival was measured with Cell Counting Kit-8 (Dojindo Laboratories, Cat # CK04).

[1] = tested on: Karpas-299 cells (NPM-ALK); test: Cell survival in Karpas-299 cells (Cell Counting Kit-8); format: cell-based, human; conditions: Homo sapiens, 72 hours
Experimental: Growth of this tumor cell line is dependent upon the expression of the NPM-ALK fusion protein. Karpas-299 cells (20,000 cells/well) were cultured in 96-well plates and maintained at 37° C. for several hours. The cells were incubated at 37° C. for 72 hours with various concentrations of compound 226 of the invention, 17AAG, and 17DMAG. 17AAG and 17DMAG are Hsp90 inhibitors that are currently in clinical trials and are used here as positive controls for Hsp90 inhibition. Cell survival was measured with Cell Counting Kit-8 (Dojindo Laboratories, Cat # CK04).

phosphorylated Bcr-Abl = test: Degradation of Bcr-Abl in KU812 cells (Western blot); format: cell-based; conditions: 18 hours
Experimental: KU812 chronic myeloid leukemia cells (ATCC) (2×10^6 cells), which harbor the Philadelphia chromosome that produces Bcr-Abl tyrosine kinase, were treated (0.1 μM and 1.0 μM) with either Compound 226, 17-AAG or 17-DMAG. After 18 hours, the cells were lysed with 1× lysis buffer, and a western blot was perform using anti-BCR-ABL antibody to detect phosphorylated Bcr-Abl.

NPM-ALK = test: Degradation of NPM-ALK in Karpas-299 cells (Western blot); format: cell-based, human; conditions: 18 hours
Experimental: Anaplastic large-cell lymphoma cells, Karpas-299 cells (the German resource center for biological material) (2×10^6 cells), which harbor the fusion protein NPM-ALK, were treated (0.05 μM, 0.1 μM and 0.5 μM) with either Compound 226 or 17-AAG. After 18 hours and the cells were lysed with 1× lysis buffer and a western blot was perform using an anti-ALK antibody to detect and phosphorylated NPM-ALK and total NPM-ALK.

## CC(C)c1cc(-c2nnc(O)n2-c2ccc3c(ccn3C)c2)c(O)cc1O [Compound 226, 3-(2,4-di-hydroxy-5-isopropyl-phenyl)-4-(1-methyl-indol-5-yl)-5-hydroxy-[1,2,4] triazole]
MV 4-11 cells (FLT3-ITD)
  IC50: < 4 nM
[1]
  IC50: 10 nM
Phosphorylated Bcr-Abl; 0.1 μM
  degradation of phosphorylated Bcr-Abl: complete degradation
Phosphorylated Bcr-Abl; 1.0 μM
  degradation of phosphorylated Bcr-Abl: complete degradation
NPM-ALK; 0.05 μM and 0.1 μM
  degradation of phosphorylated and total NPM-ALK: partial degradation
NPM-ALK; 0.5 μM
  degradation of phosphorylated NPM-ALK: total degradation
